# Test results taken from PubChem BioAssay AID624361 (Broad Institute, 2012).
# Results filed as inconclusive are left out.
# System: LMP1-induced NF-kappaB luciferase reporter cells, luminescence
# Assay: LMP1-induced NF-kB luciferase signal inhibition – cell-based, EBV LMP1, dry powder, set 2, dose response (AID 624361)
row,Structure (SMILES),AC35 [µM]
1,COc1ccccc1C#Cc1cnc2c(c1)C(=O)N([C@@H](C)CO)C[C@H](C)[C@@H](CN(C)C(=O)c1ccc3c(c1)OCO3)O2,31.2
2,N#C[C@@H]1[C@H](c2ccc(C#Cc3ccccc3F)cc2)[C@@H](CO)N1C(=O)c1cccnc1,0.9
3,CN(C)C(=O)c1cccc(-c2cccc(-c3nc(C(=O)NCc4ccccc4)cc4c3[C@@H](CCO)N([S@](=O)C(C)(C)C)C4)c2)c1,16.5
4,Cc1noc(C)c1S(=O)(=O)Nc1ccc2c(c1)C(=O)N([C@H](C)CO)C[C@H](C)[C@@H](CN(C)Cc1ccc(C(F)(F)F)cc1)OCCCC[C@H](C)O2,22.1
5,Cc1noc(C)c1S(=O)(=O)Nc1ccc2c(c1)C(=O)N([C@H](C)CO)C[C@@H](C)[C@@H](CN(C)Cc1ccc(C(F)(F)F)cc1)OCCCC[C@H](C)O2,26.4
6,COc1ccc(-c2cccc(-c3nc(C(=O)NCC(F)(F)F)cc4c3[C@H](CCO)N([S@@](=O)C(C)(C)C)C4)c2)cc1,21.5
7,C[C@@H]1CN([C@@H](C)CO)S(=O)(=O)c2ccc(C#C[C@@H](C)O)cc2O[C@H]1CN(C)Cc1ccc(-c2ccccc2)cc1,21.5
8,C[C@@H]1CN([C@@H](C)CO)C(=O)Cc2cc(NC(=O)Cc3ccccc3)ccc2O[C@H]1CN(C)Cc1ccc(C(F)(F)F)cc1,30
9,O=C(C[C@@H]1C[C@H]2c3cc(NS(=O)(=O)c4ccc(F)cc4)ccc3O[C@H]2[C@@H](CO)O1)NCc1ccc(Oc2ccccc2)cc1,14.7
10,CC(C)(C)[S@@](=O)N1Cc2cc(C(=O)NCc3ccccc3F)nc(-c3cccc(-c4ccncc4)c3)c2[C@H]1CCO,35.5
11,CC(C)NC(=O)N1Cc2cc(C(=O)NC3Cc4ccccc4C3)nc(-c3cccc(-c4cccnc4)c3)c2[C@@H]1CCO,23.7
12,Cc1ccc(S(=O)(=O)N(C)C[C@H]2Oc3cc(C#Cc4ccncc4)ccc3S(=O)(=O)N([C@@H](C)CO)C[C@@H]2C)cc1,10.2
13,COc1ccccc1C#Cc1ccc([C@H]2[C@H](C#N)N(C(=O)C3CC3)[C@H]2CO)cc1,20
14,O=C(C[C@@H]1CC[C@@H]2[C@H](COC[C@H](O)CN2Cc2ccc3c(c2)OCO3)O1)Nc1ccc(-c2ccccc2)cc1,7.79
15,O=C(C[C@H]1C[C@H]2c3cc(NC(=O)c4ccc5c(c4)OCO5)ccc3O[C@H]2[C@H](CO)O1)NCc1ccc(Oc2ccccc2)cc1,20.7
16,O=C(Nc1ccc(C(F)(F)F)cc1)Nc1ccc2c(c1)[C@H]1C[C@H](CC(=O)N3CCc4ccccc4C3)O[C@H](CO)[C@H]1O2,24.9
17,Cc1ccc(S(=O)(=O)N(C)C[C@H]2Oc3cc(C#Cc4ccncc4)ccc3S(=O)(=O)N([C@@H](C)CO)C[C@H]2C)cc1,11.5
18,Cc1noc(C)c1S(=O)(=O)Nc1ccc2c(c1)C(=O)N([C@H](C)CO)C[C@@H](C)[C@H](CN(C)Cc1ccc(C(F)(F)F)cc1)OCCCC[C@H](C)O2,31.2
19,CN(C)c1ccc2c(c1)[C@@H]1C[C@@H](CC(=O)NCc3ccc(Oc4ccccc4)cc3)O[C@H](CO)[C@@H]1O2,12.9
20,O=C(C[C@H]1C[C@H]2c3cc(NS(=O)(=O)c4ccc(F)cc4)ccc3O[C@H]2[C@H](CO)O1)NCc1ccc(Oc2ccccc2)cc1,10.3
21,Cc1cc(C(=O)Nc2ccc3c(c2)C(=O)N(C)[C@@H]2CC[C@@H](CC(=O)NCc4ccc(-c5ccccc5)cc4)O[C@H]2CO3)no1,4.76
22,CC(C)(C)[S@](=O)N1Cc2cc(C(=O)NCC(F)(F)F)nc(-c3cccc(-c4cccc(F)c4)c3)c2[C@@H]1CCO,8.29
23,CN(C)c1ccc2c(c1)[C@@H]1C[C@H](CC(=O)NCc3ccc(Oc4ccccc4)cc3)O[C@@H](CO)[C@@H]1O2,11.4

row,Structure (SMILES),AC35 [µM]
1,Cc1noc(C)c1S(=O)(=O)Nc1ccc2c(c1)C(=O)N([C@@H](C)CO)C[C@H](C)[C@H](CN(C)Cc1ccc(C(F)(F)F)cc1)OCCCC[C@H](C)O2,33.4
2,C[C@@H]1CN([C@H](C)CO)S(=O)(=O)c2ccc(C#C[C@@H](C)O)cc2O[C@H]1CN(C)Cc1ccc(-c2ccccc2)cc1,22.4
3,Cc1noc(C)c1S(=O)(=O)Nc1ccc2c(c1)C(=O)N([C@@H](C)CO)C[C@@H](C)[C@@H](CN(C)Cc1ccc(C(F)(F)F)cc1)OCCCC[C@H](C)O2,32.8
4,COc1ccc(S(=O)(=O)N(C)C[C@@H]2Oc3ncc(/C=C/c4ccccc4)cc3C(=O)N([C@@H](C)CO)C[C@H]2C)cc1,28.6
5,O=C(C[C@H]1CC[C@H]2[C@@H](COC[C@@H](O)CN2Cc2ccc3c(c2)OCO3)O1)Nc1ccc(-c2ccccc2)cc1,16.1
6,N#C[C@H]1[C@H](c2ccc(C#Cc3ccccc3F)cc2)[C@H](CO)N1C(=O)c1cccnc1,20.8
7,COc1ccccc1C#Cc1ccc2c(c1)O[C@H](CN(C)Cc1cccnc1)[C@H](C)CN([C@H](C)CO)S2(=O)=O,20.3
8,C[C@H](CO)N1C[C@H](C)[C@@H](CN(C)S(=O)(=O)c2cccc(F)c2)Oc2ncc(C#CC3CCCCC3)cc2C1=O,35.3
9,COc1ccc(S(=O)(=O)N(C)C[C@H]2Oc3ncc(/C=C/c4ccccc4)cc3C(=O)N([C@H](C)CO)C[C@@H]2C)cc1,20.5
10,Cc1noc(C)c1S(=O)(=O)Nc1ccc2c(c1)C(=O)N([C@@H](C)CO)C[C@H](C)[C@@H](CN(C)Cc1ccc(C(F)(F)F)cc1)OCCCC[C@@H](C)O2,21.5
11,CC(C)NC(=O)N1Cc2cc(C(=O)NC3Cc4ccccc4C3)nc(-c3cccc(-c4cccnc4)c3)c2[C@H]1CCO,28.2
12,COc1cccc(C#Cc2ccc([C@@H]3[C@@H](C#N)N(C(=O)c4ccccn4)[C@@H]3CO)cc2)c1,18
13,O=C(C[C@@H]1C[C@H]2c3cc(NC(=O)c4ccc5c(c4)OCO5)ccc3O[C@H]2[C@H](CO)O1)NC1CCCCC1,24
14,O=C(Nc1ccc(C(F)(F)F)cc1)Nc1ccc2c(c1)[C@H]1C[C@@H](CC(=O)N3CCc4ccccc4C3)O[C@@H](CO)[C@H]1O2,21.7
15,Cc1noc(C)c1S(=O)(=O)Nc1ccc2c(c1)C(=O)N([C@H](C)CO)C[C@H](C)[C@H](CN(C)Cc1ccc(C(F)(F)F)cc1)OCCCC[C@H](C)O2,27.8
16,C[C@@H]1CN([C@@H](C)CO)S(=O)(=O)c2ccc(C#Cc3ccncc3)cc2O[C@H]1CN(C)C(=O)Nc1ccc2c(c1)OCO2,24
17,COc1cccc(S(=O)(=O)N(C)C[C@@H]2Oc3cc(C4=CCCCC4)ccc3S(=O)(=O)N([C@H](C)CO)C[C@H]2C)c1,23.4
18,COc1cccc(S(=O)(=O)N(C)C[C@H]2Oc3cc(C4=CCCCC4)ccc3S(=O)(=O)N([C@H](C)CO)C[C@H]2C)c1,33
19,COc1cccc(S(=O)(=O)N(C)C[C@@H]2Oc3cc(C4=CCCCC4)ccc3S(=O)(=O)N([C@@H](C)CO)C[C@@H]2C)c1,24
20,Cc1noc(C)c1S(=O)(=O)Nc1ccc2c(c1)C(=O)N([C@H](C)CO)C[C@H](C)[C@H](CN(C)Cc1ccc(C(F)(F)F)cc1)OCCCC[C@@H](C)O2,33.8
21,CN1C(=O)c2cc(NC(=O)Cc3cccs3)ccc2OC[C@@H]2O[C@H](CC(=O)NCc3ccc(-c4ccccc4)cc3)CC[C@H]21,29.4
22,C[C@H]1CN([C@@H](C)CO)S(=O)(=O)c2ccc(C#Cc3ccncc3)cc2O[C@H]1CN(C)C(=O)Nc1ccc2c(c1)OCO2,14.8
23,O=C(C[C@@H]1CC[C@H]2[C@@H](COC[C@H](O)CN2Cc2ccc(Oc3ccccc3)cc2)O1)N1CCc2ccccc2C1,25.7

row,Structure (SMILES),AC35 [µM]
1,CC(C)c1ccc(NC(=O)C[C@H]2CC[C@H]3[C@@H](COc4ccc(NC(=O)Nc5ccc(F)c(F)c5)cc4C(=O)N3C)O2)cc1,18.1
2,C[C@H](CO)N1C[C@H](C)[C@H](CN(C)C(=O)NC2CCCCC2)Oc2cc(/C=C/c3ccccc3)ccc2S1(=O)=O,24
3,Cc1noc(C)c1S(=O)(=O)Nc1ccc2c(c1)C(=O)N([C@@H](C)CO)C[C@H](C)[C@H](CN(C)Cc1ccc(C(F)(F)F)cc1)OCCCC[C@@H](C)O2,28.9
4,Cc1cc(C(=O)Nc2ccc3c(c2)C(=O)N(C)[C@H]2CC[C@@H](CC(=O)NCc4ccc(-c5ccccc5)cc4)O[C@H]2CO3)no1,14.2
5,O=C(C[C@H]1C[C@@H]2c3cc(NS(=O)(=O)c4ccc(F)cc4)ccc3O[C@@H]2[C@@H](CO)O1)NCc1ccc(Oc2ccccc2)cc1,12.3
6,CN1C(=O)c2cc(NC(=O)c3ccc(C(F)(F)F)cc3)ccc2OC[C@@H]2O[C@@H](CC(=O)NC3Cc4ccccc4C3)CC[C@H]21,11.6
7,COc1ccc(NC(=O)N(C)C[C@@H]2Oc3cc(C#CCC(C)C)ccc3S(=O)(=O)N([C@@H](C)CO)C[C@@H]2C)cc1,28.3
8,COc1ccccc1C#Cc1ccc2c(c1)O[C@H](CN(C)Cc1cccnc1)[C@H](C)CN([C@@H](C)CO)S2(=O)=O,18.3
9,Cc1noc(C)c1S(=O)(=O)Nc1ccc2c(c1)C(=O)N([C@@H](C)CO)C[C@H](C)[C@@H](CN(C)Cc1ccc(C(F)(F)F)cc1)OCCCC[C@H](C)O2,30.3
10,O=C(Nc1ccc(C(F)(F)F)cc1)Nc1ccc2c(c1)[C@@H]1C[C@H](CC(=O)N3CCc4ccccc4C3)O[C@H](CO)[C@@H]1O2,8.02
11,O=C(C[C@@H]1C[C@@H]2c3cc(NS(=O)(=O)c4ccc(F)cc4)ccc3O[C@@H]2[C@@H](CO)O1)NCc1ccc(Oc2ccccc2)cc1,12.3
12,O=C(C[C@H]1C[C@@H]2c3cc(NC(=O)c4ccc5c(c4)OCO5)ccc3O[C@@H]2[C@@H](CO)O1)NCc1ccc(Oc2ccccc2)cc1,26.6
13,O=C(C[C@@H]1CC[C@@H]2[C@H](COC[C@@H](O)CN2Cc2ccc3c(c2)OCO3)O1)Nc1ccc(-c2ccccc2)cc1,10
14,CCCNC(=O)c1cc2c(c(-c3cccc(-c4cccc(F)c4)c3)n1)[C@H](CCO)N([S@@](=O)C(C)(C)C)C2,30.6
15,COc1cccc(S(=O)(=O)N(C)C[C@@H]2Oc3cc(C4=CCCCC4)ccc3S(=O)(=O)N([C@@H](C)CO)C[C@H]2C)c1,20.9
16,Cc1noc(C)c1S(=O)(=O)Nc1ccc2c(c1)C(=O)N([C@@H](C)CO)C[C@@H](C)[C@H](CN(C)Cc1ccc(C(F)(F)F)cc1)OCCCC[C@@H](C)O2,31.7
17,C[C@@H]1CN([C@H](C)CO)S(=O)(=O)c2ccc(/C=C/c3ccccc3)cc2O[C@H]1CN(C)C(=O)NC1CCCCC1,19.3
18,COc1cccc(S(=O)(=O)N(C)C[C@H]2Oc3cc(C4=CCCCC4)ccc3S(=O)(=O)N([C@@H](C)CO)C[C@@H]2C)c1,20.2
19,N#C[C@H]1[C@@H](c2ccc(-c3cccnc3)cc2)[C@@H](CO)N1C(=O)Nc1ccc(F)cc1,34.3
20,CC(C)(C)[S@@](=O)N1Cc2cc(C(=O)NCc3ccccc3F)nc(-c3cccc(-c4cccnc4)c3)c2[C@H]1CCO,29.5
21,COc1cccc(C#Cc2ccc([C@@H]3[C@H](C#N)N(C(=O)c4ccccn4)[C@H]3CO)cc2)c1,26.1
